From patent US11319295B2, “Substituted phenyloxetane and phenyltetrahydrofuran compounds as indoleamine 2,3-dioxygenase (IDO) inhibitors” (MERCK SHARP & DOHME CORP., priority 2017, dated 2022)
Like-named read-outs stand apart in the source and are kept apart here.

Key:
[1] = target: TDO (Homo sapiens, UniProt P48775)
Method: TDO Cellular Assay in Frozen SW48 Cells
SW48 cells were cultured in complete RPMI culture medium (90% RPMI, 10% heat-inactivated fetal bovine serum).
SW48 and A2780 cells were dispensed to the respective wells of 384-well assay plates containing the compounds. The plates were incubated for about 48 hours at a 37° C., 5% CO2 incubator. Afterwards, 12 μL of 0.5 M ethyl isonipecotate (Sigma Aldrich, Cat #E33505) in dimethyl sulfoxide were added into each well and the plates were sealed and incubated at 37° C. without CO2 overnight. The plates were centrifuged for 1 minute at 200×g. The resulting fluorescence was measured in a Spectramax plate reader (Molecular Devices) with a 400 nm excitation filter and a 510 nm emission filter.
The fluorescence intensity of each well was corrected for the background observed in wells with A2780 cells and was expressed as a fraction of the intensity observed in wells of SW48 cells and DMSO only. Potencies were calculated by linear least squares fit to the four parameter logistic IC50 equation.

[2] = target: T1, IDO1 (Homo sapiens, UniProt P14902); test: IDO1 Human Whole Blood Assay; format: cell-based; design: Human whole blood was drawn in sodium heparin coated tubes from healthy internal donors; from tissue; host or cells: human whole blood from healthy donors, stimulated with LPS and IFNγ; conditions: LPS and IFNγ 100 ng/mL, 18 h, kynurenine by LC/MS/MS, form screened: Neutral
T1 sequence (P14902 whole entry): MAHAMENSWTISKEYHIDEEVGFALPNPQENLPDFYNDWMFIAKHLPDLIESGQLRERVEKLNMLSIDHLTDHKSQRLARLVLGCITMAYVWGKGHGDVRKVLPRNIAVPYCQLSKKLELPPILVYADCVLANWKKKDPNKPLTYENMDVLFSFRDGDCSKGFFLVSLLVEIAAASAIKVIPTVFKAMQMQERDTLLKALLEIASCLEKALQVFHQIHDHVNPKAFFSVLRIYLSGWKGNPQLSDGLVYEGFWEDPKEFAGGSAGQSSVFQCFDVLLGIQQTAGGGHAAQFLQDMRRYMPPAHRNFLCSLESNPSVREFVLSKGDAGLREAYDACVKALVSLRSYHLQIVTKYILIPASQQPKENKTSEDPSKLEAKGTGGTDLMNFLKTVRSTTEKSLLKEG
Method: IDO1 Human Whole Blood Assay
LPS and IFNγ was prepared in RPMI to a 10× of final conc. (1000 ng/mL), final concentration is 100 ng/mL.
Human whole blood was drawn in sodium heparin coated tubes from healthy internal donors. […] of blood was transferred to each of the wells of a v-bottom 96 well plate. […] of compound was transferred from intermediate dilution plate, and incubated for 15 min. 30 μL from stimulants was then transferred to blood and mixed thoroughly. Plate was covered with breathable membrane and incubated at 37° C. for overnight (18 h).
On day 2 isotope labeled standard of kynurenine and tryptophan was made in water at 10× concentration and […] was added to the blood at […] final concentration. The assay plates were centrifuged at 300×G for 10 min with no brake to separate plasma from red blood cells. […] of plasma samples was removed without disturbing red blood cells. Plasma was diluted with RPMI in 1:1 ratio and proteins were precipitated out with two volume of Acetonitrile. The plates was centrifuged at 4000×G for 60 min. 20 mL of supernatant was carefully transferred to a 384 well plate contain 40 mL of 0.1% formic acid in water and analyzed by LC/MS/MS.
LC/MS/MS analyses were performed using Thermo Fisher's LX4-TSQ Quantum Ultra system. This system consists of four Agilent binary high-performance liquid chromatography (HPLC) pumps and a TSQ Quantum Ultra triple quadruple MS/MS instrument. For each sample, […] were injected onto an Atlantis T3 column (2.1 mm×150 mm, […]) from Waters. The mobile phase gradient pumped at 0.8 mL/min was used to elute the analytes from the column at 25° C. […] Mobile phase A consisted of 0.1% formic acid in water. Mobile phase B consisted of 0.1% of formic acid in acetonitrile. Data was acquired in positive mode using a HESI interface. […] Compounds were titrated and IC50's were calculated by 4 parameter sigmoidal curve fitting formula.

[3] = target: T1, IDO1; test: IDO1 Cellular Assay in Hela Cells Stimulated with IFNγ; conditions: Hela IC50 (nM), Hela cells stimulated with IFNγ 100 ng/mL, 300 uM L-tryptophan, about 48 hours; form screened: Neutral
Method: Hela cells were cultured in complete Hela culture medium (90% EMEM, 10% heat-inactivated fetal bovine serum) and expanded to about 1×10^9 cells. The cells were then collected and frozen down at 1×10^7 cells/vial in 1 mL frozen medium (90% complete Hela culture medium, 10% DMSO)
Compounds to be tested were serially diluted in ten 3-fold steps in DMSO starting from 10 mM DMSO stocks in Echo low volume plate(s).
Hela cells with and without IFNγ were dispensed to the respective wells of 384-well assay plates containing the compounds. The plates were incubated for about 48 hours at a 37° C., 5% CO2 incubator. Afterwards, 12 mL of 0.5 M methyl isonipecotate in dimethyl sulfoxide were added into each well and the plates were sealed and incubated at 37° C. without CO2 overnight. The plates were centrifuged for 1 min at 200×g. The resulting fluorescence was measured in a Spectramax plate reader (Molecular Devices) with a 400 nm excitation filter and a 510 nm emission filter.
Potencies were calculated by linear least squares fit to the four parameter logistic IC50 equation.

[4] = read-out: SW48 IC50, SW48 cells, 300 uM L-tryptophan, about 48 hours, form screened: Neutral

TDO, sequence (P48775 whole entry): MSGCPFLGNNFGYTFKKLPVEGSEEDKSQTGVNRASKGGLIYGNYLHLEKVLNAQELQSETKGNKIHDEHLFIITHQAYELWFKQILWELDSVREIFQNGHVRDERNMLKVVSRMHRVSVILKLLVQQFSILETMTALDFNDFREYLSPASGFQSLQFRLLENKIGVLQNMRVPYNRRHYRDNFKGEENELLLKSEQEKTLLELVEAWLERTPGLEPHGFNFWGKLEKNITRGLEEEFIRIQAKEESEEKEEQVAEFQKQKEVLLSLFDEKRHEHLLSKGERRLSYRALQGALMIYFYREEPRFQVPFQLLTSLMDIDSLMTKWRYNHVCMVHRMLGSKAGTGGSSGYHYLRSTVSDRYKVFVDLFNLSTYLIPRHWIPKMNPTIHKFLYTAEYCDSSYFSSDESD

Work on CC1CC1NC(=O)C1(c2ccc(NC(=O)c3cccc(Cl)c3)cc2)COC1 (single isomer, unassigned) [Example 4, 3-{4-[(3-chlorobenzene-1-carbonyl)amino]phenyl}-N-(2-methylcyclopropyl)oxetane-3-carboxamide] yielded an IC50 [1, 4] of no less than 10000 nM, an IC50 [2] of 324 nM and an IC50 [3] of 12 nM.
N#Cc1cccc(C(=O)Nc2ccc(C3(C(=O)Nc4ccc(F)cc4)COC3)nc2)c1 [Example 20, 3-{5-[(3-cyanobenzene-1-carbonyl)amino]pyridin-2-yl}-N-(4-fluorophenyl)oxetane-3-carboxamide] was tested, and the IC50 [2] was 438 nM and the IC50 [3] was 3 nM.
Work on CC1CC1NC(=O)C1(c2ccc(NC(=O)c3cccc(Cl)c3)cc2)COC1 (single isomer, unassigned) [Example 10, 3-{4-[(3-chlorobenzene-1-carbonyl)amino]phenyl}-N-(2-methylcyclo-propyl)oxetane-3-carboxamide] yielded an IC50 [1, 4] of no less than 10000 nM and an IC50 [3] of 352 nM.
Compound CC1CC1NC(=O)C1(c2ccc(NC(=O)c3cccc(Cl)c3)cc2)COC1 (single isomer, unassigned) [Example 8, 3-{4-[(3-chlrobenzene-1-carbonyl)amino]phenyl}-N-(2-methylcyclo-propyl)oxetane-3-carboxamide] has an IC50 [1] of no less than 10000 nM and an IC50 [3] of 85 nM.
O=C(Nc1ccc(C2(C(=O)Nc3ccc(F)cc3)COC2)cc1)c1cccc(Cl)c1F [Example 3, 3-{4-[(3-chloro-2-fluorobenzene-1-carbonyl)amino]phenyl}-N-(4-fluorophenyl)oxetane-3-carboxamide] showed an IC50 [1] of no less than 10000 nM and an IC50 [3] of 3 nM.
Cc1cc(C2(C(=O)Nc3ccc(F)cc3)COC2)ncc1NC(=O)c1cccc(C#N)c1 [Example 18, 3-{5-[(3-cyanobenzene-1-carbonyl)amino]-4-methylpyridin-2-yl}-N-(4-fluorophenyl)oxetane-3-carboxamide] gave an IC50 [3] of 58 nM.
CCCNC(=O)C1(c2ccc(NC(=O)c3cccc(Cl)c3)cc2)COC1 [Example 5, 3-{4-[(3-chlorobenzene-1-carbonyl)amino]phenyl}-N-propyloxetane-3-carboxamide] was tested, and the IC50 [2] was 1530 nM and the IC50 [3] was 25 nM.
O=C(Nc1ccc(C2(C(=O)NCCC(F)(F)F)COC2)cc1)c1cccc(Cl)c1 [Example 6, 3-{4-[(3-chlorobenzene-1-carbonyl)amino]phenyl}-N-(3,3,3-trifluoropropyl)oxetane-3-carboxamide] was tested, and the IC50 [1] was no less than 10000 nM and the IC50 [3] was 51 nM.
O=C(Nc1ccc(C2(C(=O)NCC3CC3)COC2)cc1)c1cccc(Cl)c1 [Example 7, 3-{4-[(3-chlorobenzene-1-carbonyl)amino]phenyl}-N-(cyclopropyl-methyl)oxetane-3-carboxamide] gave an IC50 [1] of no less than 10000 nM and an IC50 [3] of 56 nM.
Work on CC1CC1NC(=O)C1(c2ccc(NC(=O)c3cccc(Cl)c3)cc2)COC1 (single isomer, unassigned) [Example 9, 3-{4-[(3-chlorobenzene-1-carbonyl)amino]phenyl}-N-(2-methylcyclo-propyl)oxetane-3-carboxamide] yielded an IC50 [1, 4] of no less than 10000 nM and an IC50 [3] of 216 nM.
Compound Cc1cc(C2(C(=O)Nc3ccc(F)cc3)COC2)ncc1NC(=O)c1cccc(Cl)c1 [Example 17, 3-{5-[(3-chlorobenzene-1-carbonyl)amino]-4-methylpyridin-2-yl}-N-(4-fluorophenyl)oxetane-3-carboxamide] has an IC50 [3] of 6 nM.
For Cc1cc(NC(=O)c2cccc(Cl)c2)cnc1C1(C(=O)Nc2ccc(F)cc2)COC1 [Example 19, 3-{5-[(3-chlorobenzene-1-carbonyl)amino]-3-methylpyridin-2-yl}-N-(4-fluorophenyl)oxetane-3-carboxamide], the IC50 [3] was 205 nM.
